Earlier results as cited in patent US4632934A, “Imidazole derivatives and pharmaceutical use thereof” (Kissei Pharmaceutical Co., Ltd., priority 1978, dated 1986).

System: thromboxane synthetase
Conditions: prior art literature

| SMILES | inhibitory effect on thromboxane synthetase (in words) |
| --- | --- |
| CC(C)c1ccccc1-n1ccnc1 [1-(2-isopropylphenyl)imidazole] | strong inhibitory effect |
| c1ccc(Cn2ccnc2)cc1 [1-benzylimidazole] | strong inhibitory effect |
| CCCCCCCCCCn1ccnc1 [1-decylimidazole] | strong inhibitory effect |
| CCCCCCCCCn1ccnc1 [1-nonylimidazole] | strong inhibitory effect |
| c1c[nH]cn1 [imidazole] | very weak inhibitory effect |
